target: human MAT2A enzyme (Homo sapiens (Human), UniProt P31153); assay: In vitro enzymatic inhibition activity assay on MAT2A (PiColorLock phosphate detection); format: biochemical; conditions: purified human MAT2A 10 nM, ATP 50 μM, L-methionine 100 μM, 6 h at 23° C.; read-out: MAT2A inhibitory activity IC50
Description: Enzymatic activity assays of compounds of this patent against MAT2A (to detect half inhibitory concentration IC50 values of the compounds) were performed using the phosphate detection kit PiColorLockTM (ab270004, purchased from Abcam). This method utilized the principle that purified human MAT2A enzyme catalyzes the formation of S-adenosylmethionine (SAM) from L-methionine and ATP to release free phosphate, and used the spectrophotometric method to quantify phosphate, so as to determine the enzymatic activity of MAT2A. Compounds were diluted in a 10-fold gradient starting at 1 mM with 100% DMSO (for a total of 8 concentrations) and 2 μL of each concentration was added to 48 μL of reaction buffer (50 mM Tris-HCl PH 7.5, 50 mM KCl, 10 mM MgCl2, 0.01% Brij-35, 0.01% BSA, 1 mM DTT) and mixed well. The final diluted compound was prepared, and 5 μL of MAT2A enzyme (final concentration of 10 nM), 5 μL of ATP (final concentration of 50 μM), and 5 μL of L-methionine (final concentration of 100 μM) were added to each well of a 384-well plate (#3701, purchased from CORNING). After the 384-well plate was placed in the incubator at 23° C. for 6 h, 5 μL of PiColorLock reagent diluted Accelerator (dilution ratio 1:100) was added to each well, and the reaction was stopped by incubating in the incubator at 23° C. for 5 min. 2 μL of Stabiliser was added, the absorbance was read at 630 nm on BMG CLARIOstar, and the IC50 value of the compound was calculated by using GraphPad Prism software.
Under the conditions of this experiment, the inhibition of MAT2A by test compounds can be expressed as an IC50 value for the inhibition of the level of phosphate production during the enzymatic reaction.

human MAT2A enzyme, sequence (P31153 whole entry): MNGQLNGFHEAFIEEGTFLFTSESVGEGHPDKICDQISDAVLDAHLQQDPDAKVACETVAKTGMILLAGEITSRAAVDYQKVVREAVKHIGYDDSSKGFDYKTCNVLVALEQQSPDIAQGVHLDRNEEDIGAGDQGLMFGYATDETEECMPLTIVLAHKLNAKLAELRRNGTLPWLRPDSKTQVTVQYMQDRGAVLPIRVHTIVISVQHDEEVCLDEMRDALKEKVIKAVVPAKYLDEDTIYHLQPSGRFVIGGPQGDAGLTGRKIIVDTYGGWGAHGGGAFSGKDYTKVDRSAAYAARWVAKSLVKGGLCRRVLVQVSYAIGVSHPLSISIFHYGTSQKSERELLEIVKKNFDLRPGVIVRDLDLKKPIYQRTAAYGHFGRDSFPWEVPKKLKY

`COC(=O)c1c(N)c2ccc(C(F)(F)F)cc2n(-c2ccc(C)nc2)c1=O` [Example 215, methyl 4-amino-1-(6-methylpyridin-3-yl)-2-oxo-7-(trifluoromethyl)-1,2-dihydroquinoline-3-carboxylate] and `COC(=O)c1c(N)c2ccc(C(F)(F)F)cc2n(-c2ccc(C)c(N)c2)c1=O` [Example 253, methyl 4-amino-1-(3-amino-4-methylphenyl)-2-oxo-7-(trifluoromethyl)-1,2-dihydroquinoline-3-carboxylate] are within 1.5-fold of each other in IC50: 2.5 nM for the first, 1.76 nM for the second.

`COC(=O)c1c(N)c2ccc(Br)cc2n(-c2cccc3c(Cl)nccc23)c1=O` [Example 216, methyl 4-amino-1-(1-chloroisoquinolin-5-yl)-7-bromo-2-oxo-1,2-dihydroquinoline-3-carboxylate] and `COC(=O)c1c(N)c2ccc(Br)cc2n(-c2cccc3c(C)nccc23)c1=O` [Example 231, methyl 4-amino-1-(1-methylisoquinolin-5-yl)-7-bromo-2-oxo-1,2-dihydroquinoline-3-carboxylate] are within 1.5-fold of each other in IC50: 2.34 nM for the first, 2.36 nM for the second.

`COC(=O)c1c(N)c2ccc(Br)cc2n(-c2ccc3ccncc3c2)c1=O` [Example 219, methyl 4-amino-7-bromo-1-(isoquinolin-7-yl)-2-oxo-1,2-dihydroquinoline-3-carboxylate] and `COC(=O)c1c(N)c2ccc(I)cc2n(-c2ccc3ccncc3c2)c1=O` [Example 242, methyl 4-amino-7-iodo-1-(isoquinolin-7-yl)-2-oxo-1,2-dihydroquinoline-3-carboxylate] are within 1.5-fold of each other in IC50: 1.87 nM for the first, 1.26 nM for the second.

Going from `COC(=O)c1c(N)c2ccc(Br)cc2n(-c2ccc3nccnc3c2)c1=O` [Example 220, methyl 4-amino-7-bromo-2-oxo-1-(quinoxalin-6-yl)-1,2-dihydroquinoline-3-carboxylate] to `COC(=O)c1c(N)c2ccc(Br)cc2n(-c2ccc3ncoc3c2)c1=O` [Example 268, methyl 4-amino-1-(benzo[d]oxazol-6-yl)-7-bromo-2-oxo-1,2-dihydroquinoline-3-carboxylate], the IC50 rises from 2.07 nM to 3.39 nM (1.6-fold). The first is the more potent here.

`COC(=O)c1c(N)c2ccc(Br)cc2n(-c2cccc3c2COC3)c1=O` [Example 222, methyl 4-amino-7-bromo-1-(1,3-dihydro-2-benzofuran-4-yl)-2-oxo-1,2-dihydroquinoline-3-carboxylate] and `COC(=O)c1c(N)c2ccc(Br)cc2n(-c2ccccc2N)c1=O` [Example 250, methyl 4-amino-1-(2-aminophenyl)-7-bromo-2-oxo-1,2-dihydroquinoline-3-carboxylate] are within 1.5-fold of each other in IC50: 8.38 nM for the first, 6.06 nM for the second.

Going from `COC(=O)c1c(N)c2ccc(C(F)(F)F)cc2n(-c2ccc3ccncc3c2)c1=O` [Example 224, methyl 4-amino-1-(isoquinolin-7-yl)-2-oxo-7-(trifluoromethyl)-1,2-dihydroquinoline-3-carboxylate] to `COC(=O)c1c(N)c2ccc(C(F)(F)F)nc2n(-c2ccc3ccncc3c2)c1=O` [Example 283, methyl 4-amino-1-(isoquinolin-7-yl)-2-oxo-7-(trifluoromethyl)-1,2-dihydro-1,8-naphthyridine-3-carboxylate], the IC50 falls from 2.81 nM to 0.7 nM (4-fold). The second is the more potent here.

`COC(=O)c1c(N)c2ccc(I)cc2n(-c2cnc(Cl)cc2C)c1=O` [Example 225, methyl 4-amino-1-(6-chloro-4-methylpyridin-3-yl)-7-iodo-2-oxo-1,2-dihydroquinoline-3-carboxylate] and `COC(=O)c1c(N)c2ccc(Br)nc2n(-c2cnc(Cl)cc2C)c1=O` [Example 249, methyl 4-amino-7-bromo-1-(6-chloro-4-methylpyridin-3-yl)-2-oxo-1,2-dihydro-1,8-naphthyridine-3-carboxylate] are within 1.5-fold of each other in IC50: 3.11 nM for the first, 2.99 nM for the second.

First: COC(=O)c1c(N)c2ccc(I)cc2n(-c2ccc(Cl)c3cnccc23)c1=O [Example 227, methyl 4-amino-1-(8-chloroisoquinolin-5-yl)-7-iodo-2-oxo-1,2-dihydroquinoline-3-carboxylate]
Second: COC(=O)c1c(N)c2ccc(Br)cc2n(-c2ccc(N)cc2F)c1=O [Example 259, methyl 4-amino-1-(4-amino-2-fluorophenyl)-7-bromo-2-oxo-1,2-dihydro quinoline-3-carboxylate]
The IC50 of the first is 1.8-fold higher: 1.96 nM for the first, 1.08 nM for the second. The second is the more potent here.

Compared with `COC(=O)c1c(N)c2ccc(C(F)(F)F)cc2n(-c2cccc3[nH]ccc23)c1=O` [Example 229, methyl 4-amino-1-(1H-indol-4-yl)-2-oxo-7-(trifluoromethyl)-1,2-dihydroquinoline-3-carboxylate], `COC(=O)c1c(N)c2ccc(C(F)(F)F)cc2n(-c2cccc3c[nH]nc23)c1=O` [Example 267, methyl 4-amino-1-(2H-indazol-7-yl)-2-oxo-7-(trifluoromethyl)-1,2-dihydroquinoline-3-carboxylate] is 1.8-fold higher in IC50: 4.18 nM for the first, 7.38 nM for the second.

First: COC(=O)c1c(N)c2ccc(C(F)(F)F)cc2n(-c2ccc(N)cc2C)c1=O [Example 237, methyl 4-amino-1-(4-amino-2-methylphenyl)-2-oxo-7-(trifluoromethyl)-1,2-dihydroquinoline-3-carboxylate]
Second: COC(=O)c1c(N)c2ccc(C(F)(F)F)cc2n(-c2ccc(C(C)O)cc2C)c1=O (stereo not drawn) [Example 269, methyl 4-amino-1-(4-(1-hydroxyethyl)-2-methylphenyl)-2-oxo-7-(trifluoromethyl)-1,2-dihydroquinoline-3-carboxylate]
The IC50 of the first is 3.6-fold lower: 1.64 nM for the first, 5.95 nM for the second.

`COC(=O)c1c(N)c2ccc(Br)nc2n(-c2ccc(N)nc2)c1=O` [Example 241, methyl 4-amino-1-(6-aminopyridin-3-yl)-7-bromo-2-oxo-1,2-dihydro-1,8-naphthyridine-3-carboxylate] and `COC(=O)c1c(N)c2ccc(Br)nc2n(-c2ccc(C)nc2)c1=O` [Example 258, methyl 4-amino-7-bromo-1-(6-methylpyridin-3-yl)-2-oxo-1,2-dihydro-1,8-naphthyridine-3-carboxylate] are within 1.5-fold of each other in IC50: 1.42 nM for the first, 1.31 nM for the second.

`COC(=O)c1c(N)c2ccc(Br)nc2n(-c2ccc(Cl)nc2C)c1=O` [Example 248, methyl 4-amino-7-bromo-1-(6-chloro-2-methylpyridin-3-yl)-2-oxo-1,2-dihydro-1,8-naphthyridine-3-carboxylate] and `COC(=O)c1c(N)c2ccc(Br)nc2n(-c2ccc(Cl)cc2C)c1=O` [Example 287, methyl 4-amino-7-bromo-1-(4-chloro-2-methylphenyl)-2-oxo-1,2-dihydro-1,8-naphthyridine-3-carboxylate] are within 1.5-fold of each other in IC50: 1.69 nM for the first, 1.45 nM for the second.

`CCOC(=O)c1c(N)c2ccc(Br)cc2n(-c2ccc3ncoc3c2)c1=O` [Example 257, ethyl 4-amino-1-(benzo[d]oxazol-6-yl)-7-bromo-2-oxo-1,2-dihydroquinoline-3-carboxylate] and `COC(=O)c1c(N)c2ccc(Br)cc2n(-c2cccc(N)c2)c1=O` [Example 284, methyl 4-amino-1-(3-aminophenyl)-7-bromo-2-oxo-1,2-dihydroquinoline-3-carboxylate] are within 1.5-fold of each other in IC50: 2.09 nM for the first, 2.44 nM for the second.

Compared with `COC(=O)c1c(N)c2ccc(Br)nc2n(-c2ccc(N)cc2)c1=O` [Example 263, methyl 4-amino-1-(4-aminophenyl)-7-bromo-2-oxo-1,2-dihydro-1,8-naphthyridine-3-carboxylate], `COC(=O)c1c(N)c2ccc(Br)nc2n(-c2ccc(I)cc2)c1=O` [Example 275, methyl 4-amino-7-bromo-1-(4-iodophenyl)-2-oxo-1,2-dihydro-1,8-naphthyridine-3-carboxylate] is 9.4-fold lower in IC50: 1.41 nM for the first, 0.15 nM for the second. The second is the more potent here.

Going from `COC(=O)c1c(N)c2ccc(C(F)(F)F)cc2n(-c2ccc([C@H](C)O)cc2)c1=O` [Example 271, methyl 4-amino-1-(4-(1-(S)-hydroxyethyl)phenyl)-2-oxo-7-(trifluoromethyl)-1,2-dihydroquinoline-3-carboxylate] to `COC(=O)c1c(N)c2ccc(C(F)(F)F)cc2n(-c2ccc(N)cc2)c1=O` [Example 273, methyl 4-amino-1-(4-aminophenyl)-2-oxo-7-(trifluoromethyl)-1,2-dihydroquinoline-3-carboxylate], the IC50 falls from 1.83 nM to 0.92 nM (2-fold). The second is the more potent here.

Going from `COC(=O)c1c(N)c2ccc(C(F)(F)F)nc2n(-c2ccc(N)cc2)c1=O` [Example 274, methyl 4-amino-1-(4-aminophenyl)-2-oxo-7-(trifluoromethyl)-1,2-dihydro-1,8-naphthyridine-3-carboxylate] to `COC(=O)c1c(N)c2ccc(C(F)(F)F)nc2n(-c2ccc(N)cc2C)c1=O` [Example 282, methyl 4-amino-1-(4-amino-2-methylphenyl)-2-oxo-7-(trifluoromethyl)-1,2-dihydro-1,8-naphthyridine-3-carboxylate], the IC50 rises from 0.53 nM to 2.2 nM (4.2-fold). The first is the more potent here.

For `COC(=O)c1c(N)c2ccc(Br)nc2n(-c2cnc(N)cc2C)c1=O` [Example 280, methyl 4-amino-1-(6-amino-4-methylpyridin-3-yl)-7-bromo-2-oxo-1,2-dihydro-1,8-naphthyridine-3-carboxylate], the IC50 was 1.72 nM.

Source: US20250221979A1, “NOVEL HETEROCYCLIC COMPOUND” (SHOUYAO HOLDINGS (BEIJING) CO., LTD., priority 2022, published 2025)
